# Values joined by “and” are separate entries in the source; they are usually repeats but may differ in a detail not shown here. Equal entries are not always repeated. “Also recorded” adds a separate entry of the source.
# Tests used:
# Kir3.1/4 channel = target: T1, Kir3.1/4 channel (Homo sapiens, UniProt P48544+P48549); experiment: Whole-cell patch clamp, HEK293T cells, Kir3.1/4; assay type: cell-based; design: expressed in transfected cells; settings: whole-cell patch-clamp HEK-293 cells; read-out: IC50, inhibition of Kir3.1/4
# T1 sequence (P48549 1-501): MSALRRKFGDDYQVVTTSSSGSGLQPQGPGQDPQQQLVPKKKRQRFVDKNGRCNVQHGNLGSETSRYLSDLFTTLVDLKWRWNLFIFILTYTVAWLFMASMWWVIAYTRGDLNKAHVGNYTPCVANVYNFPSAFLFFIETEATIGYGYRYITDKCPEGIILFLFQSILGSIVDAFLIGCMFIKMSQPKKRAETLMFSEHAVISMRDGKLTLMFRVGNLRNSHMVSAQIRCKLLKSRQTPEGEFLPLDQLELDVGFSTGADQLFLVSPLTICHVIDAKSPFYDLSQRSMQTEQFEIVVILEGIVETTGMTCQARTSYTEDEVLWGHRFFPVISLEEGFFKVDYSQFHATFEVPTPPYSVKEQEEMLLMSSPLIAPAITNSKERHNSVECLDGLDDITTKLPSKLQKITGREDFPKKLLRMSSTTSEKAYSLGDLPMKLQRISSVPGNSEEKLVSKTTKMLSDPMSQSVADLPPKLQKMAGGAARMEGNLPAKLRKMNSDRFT
# T1 sequence (P48544 1-419): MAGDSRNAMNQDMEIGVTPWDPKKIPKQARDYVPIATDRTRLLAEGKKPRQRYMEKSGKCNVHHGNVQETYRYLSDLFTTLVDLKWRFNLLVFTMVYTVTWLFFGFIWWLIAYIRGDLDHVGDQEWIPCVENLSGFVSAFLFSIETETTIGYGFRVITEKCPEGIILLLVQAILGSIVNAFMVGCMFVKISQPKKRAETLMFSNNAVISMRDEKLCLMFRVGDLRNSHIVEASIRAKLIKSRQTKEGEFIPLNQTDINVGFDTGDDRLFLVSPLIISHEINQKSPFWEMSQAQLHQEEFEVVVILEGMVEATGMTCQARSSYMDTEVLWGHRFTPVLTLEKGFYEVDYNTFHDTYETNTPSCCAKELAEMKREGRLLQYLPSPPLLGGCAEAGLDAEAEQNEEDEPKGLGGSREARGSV
# Method: For the experiments shown in Figure 1, G and H, whole-cell currents were recorded with an Axopatch 200B amplifier and pCLAMP software (Molecular Devices). HEK293T cells were transiently transfected with 1 μg Kir3.1 together with 1 μg Kir3.2 or 1 μg Kir3.4 DNA, using polyethylenimine (PEI). The cells were maintained in DMEM supplemented with 10% Fetal Bovine Serum and 1% Penicillin/Streptomycin at 37 °C in a 5% CO2 humidified atmosphere and were studied 24 to 48 h after transfection. HEK293T cells were bathed in Low K^+ (LK) solution (135 mM NaCl, 5 mM KCl, 1.2 mM MgCl2, 1.5 mM CaCl2, 8 mM Glucose, 10 mM HEPES with pH 7.4). High K^+ (HK) solution (5 mM NaCl, 135 mM KCl, 1.2 mM MgCl2, 1.5 mM CaCl2, 8 mM Glucose, 10 mM HEPES with pH 7.4) was perfused to establish basal currents. BP-G1 in HK solution was perfused sequentially in a concentration response manner prior to applying 5 mM BaCl2 in HK to identify remaining barium-insensitive leak currents and subtract them from the current records. […] Cells used in the experiments were selected based on eGFP fluorescence. A ramp protocol from −80 mV to +80 mV was used and currents were recorded at −80 mV in the whole-cell mode (using the Strathclyde Electrophysiology Software from the University of Strathclyde, Glasgow). The patch-clamp data were analyzed offline in pClamp (Molecular Devices) and OriginLab software. […]
# IKACh = experiment: In vivo ECG, carbachol-induced heart rate slowing in anesthetized mice; settings: 40 μl of 240 μM via jugular vein
# Method: We tested the in vivo effects of BP-G1 versus those of BP-G1(SR) on heart rate in anesthetized adult mice (Fig. 8). ECG was continuously recorded. Panel A is the ECG showing that after carbachol (300 μl of 200 μM) was administered, i.p. (red mark), the heart decelerated, with a visible RR prolongation. About 10 min after carbachol injection, BP-G1 was delivered via the jugular vein (40 μl of 240 μM) (green mark). Within 5 min, there was a reversal of carbachol’s effects on the heart rate. Panel B is a control mouse showing heart rate slowing after carbachol administration (red mark).
# Mice were anesthetized (1.5% isofluorane), and a 1.2 French octapolar catheter (Millar) with a drug delivery port was placed transvenously, through the jugular vein, into the right atrium. Continuous ECG was recorded using the Animal Bio Amp and PowerLab 4/35 Advanced Instruments apparatus. […] Saline control at the same volume was performed. Results are averages ±SD.
# Kir3.1(E141A/D173A) = Kir3.1(E141A/D173A) (Homo sapiens, UniProt P48544+P48549, D173A/E141A); assay type: cell-based; settings: 1 μM, TEVC
# [1] = Plasma protein binding, rat; assay type: in vitro ADME; settings: read-out: Rat Plasma Protein Binding (PPB) (converted)
# Neurokinin NK1 = target: T2, Neurokinin NK1 (Homo sapiens, UniProt P25103); experiment: Radioligand binding, [125I]-Substance P LYS3, U373MG uppsala; settings: read-out: % Specific Binding at 10 µM
# T2 construct: endogenous in cells; host or cells: U373MG uppsala
# [2] = Plasma protein binding, dog; assay type: in vitro ADME; settings: read-out: Dog PPB (converted)
# hERG channel = hERG channel (Homo sapiens, UniProt Q12809); experiment: hERG currents in Xenopus oocytes, TEVC
# Kir3.4 = target: T3, Kir3.4 (Homo sapiens, UniProt P48544); experiment: Cloned cardiac ion channel patch clamp, Kir3.4; assay type: cell-based
# T3 construct: expressed in transfected cells
# Kir3.1(E141A)/4 = target: T4, Kir3.1(E141A)/4 (Homo sapiens, UniProt P48544+P48549, E141A); experiment: TEVC in Xenopus oocytes, Kir3.1(E141A)/4; assay type: cell-based; settings: 1 μM
# T4 construct: expressed in transfected cells; host or cells: Xenopus laevis oocytes (cRNA injection)
# T4 sequence (P48549 whole entry E141A, one chain of several): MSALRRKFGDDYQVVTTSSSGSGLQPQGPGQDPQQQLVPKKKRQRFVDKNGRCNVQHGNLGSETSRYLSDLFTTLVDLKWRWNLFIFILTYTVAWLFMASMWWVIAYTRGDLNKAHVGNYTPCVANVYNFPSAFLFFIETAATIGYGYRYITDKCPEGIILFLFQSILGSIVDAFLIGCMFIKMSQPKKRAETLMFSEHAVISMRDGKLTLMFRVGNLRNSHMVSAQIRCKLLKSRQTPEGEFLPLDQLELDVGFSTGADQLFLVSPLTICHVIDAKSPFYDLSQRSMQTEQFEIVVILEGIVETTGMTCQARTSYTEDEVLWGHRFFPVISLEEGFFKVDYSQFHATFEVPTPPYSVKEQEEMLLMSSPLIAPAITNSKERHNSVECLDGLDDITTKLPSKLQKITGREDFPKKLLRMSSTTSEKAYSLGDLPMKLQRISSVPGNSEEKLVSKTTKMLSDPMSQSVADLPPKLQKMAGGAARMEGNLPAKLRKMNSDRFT
# Sequence of hERG channel (Q12809 whole entry): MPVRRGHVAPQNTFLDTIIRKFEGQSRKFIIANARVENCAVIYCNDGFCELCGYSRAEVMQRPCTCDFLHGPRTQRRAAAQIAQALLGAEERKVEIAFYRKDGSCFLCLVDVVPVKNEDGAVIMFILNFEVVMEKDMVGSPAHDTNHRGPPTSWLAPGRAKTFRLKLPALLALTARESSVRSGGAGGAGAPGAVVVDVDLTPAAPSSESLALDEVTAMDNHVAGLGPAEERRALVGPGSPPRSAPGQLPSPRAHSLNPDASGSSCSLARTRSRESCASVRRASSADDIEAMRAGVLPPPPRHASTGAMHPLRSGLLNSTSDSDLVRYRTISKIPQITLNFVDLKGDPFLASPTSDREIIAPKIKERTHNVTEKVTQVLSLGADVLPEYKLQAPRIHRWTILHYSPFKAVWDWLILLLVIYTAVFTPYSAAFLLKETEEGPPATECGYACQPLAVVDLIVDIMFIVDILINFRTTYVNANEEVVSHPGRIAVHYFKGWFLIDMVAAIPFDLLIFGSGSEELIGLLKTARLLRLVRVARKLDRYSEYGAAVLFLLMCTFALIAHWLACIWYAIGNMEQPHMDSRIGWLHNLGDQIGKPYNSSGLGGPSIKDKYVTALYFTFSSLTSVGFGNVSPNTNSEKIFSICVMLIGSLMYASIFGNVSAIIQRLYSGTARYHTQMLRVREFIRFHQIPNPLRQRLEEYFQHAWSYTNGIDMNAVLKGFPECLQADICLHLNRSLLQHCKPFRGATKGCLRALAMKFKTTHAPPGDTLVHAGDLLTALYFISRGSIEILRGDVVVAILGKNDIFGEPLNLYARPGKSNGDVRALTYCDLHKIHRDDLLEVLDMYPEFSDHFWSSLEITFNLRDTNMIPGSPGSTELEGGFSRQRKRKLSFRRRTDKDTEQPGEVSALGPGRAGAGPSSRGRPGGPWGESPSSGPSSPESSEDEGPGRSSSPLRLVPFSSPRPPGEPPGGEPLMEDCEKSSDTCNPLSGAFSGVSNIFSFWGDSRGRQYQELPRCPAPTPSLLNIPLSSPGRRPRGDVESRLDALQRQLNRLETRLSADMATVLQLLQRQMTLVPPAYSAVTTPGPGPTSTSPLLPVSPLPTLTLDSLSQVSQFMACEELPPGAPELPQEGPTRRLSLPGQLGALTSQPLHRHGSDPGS
# Sequence of Kir3.1(E141A/D173A) (P48549 whole entry E141A/D173A, one chain of several): as the sequence (P48549 whole entry E141A, one chain of several) above, with D173A counted along it
# T2 sequence (P25103 whole entry): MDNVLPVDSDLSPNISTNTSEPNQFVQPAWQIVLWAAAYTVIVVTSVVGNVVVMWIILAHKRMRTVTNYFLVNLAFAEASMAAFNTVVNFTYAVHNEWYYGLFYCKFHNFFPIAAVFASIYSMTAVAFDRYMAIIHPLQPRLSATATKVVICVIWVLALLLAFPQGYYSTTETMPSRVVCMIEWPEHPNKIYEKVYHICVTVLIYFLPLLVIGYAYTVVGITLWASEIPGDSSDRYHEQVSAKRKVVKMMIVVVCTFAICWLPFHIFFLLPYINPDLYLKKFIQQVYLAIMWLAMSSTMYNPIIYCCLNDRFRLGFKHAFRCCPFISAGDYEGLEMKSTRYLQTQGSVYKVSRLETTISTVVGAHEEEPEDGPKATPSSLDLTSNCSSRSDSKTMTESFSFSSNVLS
structure (smiles),measurement,setting,value
"Cc1cc(CO)nc2cc3c(cc12)OC(C)(C)[C@H](O)[C@H]3NCCc1ccccc1 [BP-G1, (3R,4S)-7-(hydroxymethyl)-2,2,9-trimethyl-4-(2-phenylethylamino)-3,4-dihydropyrano[2,3-g]quinolin-3-ol]",IC50,Kir3.1/4 channel,10 to 30 nM and 10.5 nM
same,time to reversal of carbachol’s effects on the heart rate,IKACh,≤ 5 min
same,"RR interval 5 min after compound, given about 10 min after carbachol","IKACh; anesthetized mice, mean ± SD, N = 3",155.4 ± 5.5 ms
same,"current block, Kir3.1(E141A/D173A)",Kir3.1(E141A/D173A),abolished any current block; also recorded: abolished the block
same,fraction unbound,[1],0.11
same,inhibition at 10 µM,Neurokinin NK1,42.6%
same,fraction unbound,[2],0.06
same,IC50,hERG channel,> 5000 nM
same,inhibitory activity on hERG current,"hERG channel; up to 5 μM, Xenopus oocytes",did not show inhibitory activity; also recorded: not inhibited
same,IC50,Kir3.4,19800 nM
same,"current block, Kir3.1(E141A)/4",Kir3.1(E141A)/4,25%

# From paper PMC8086025, “A benzopyran with antiarrhythmic activity is an inhibitor of Kir3.1-containing potassium channels” (The Journal of Biological Chemistry, 2021)
